Measured values as given in US11919886B2, “4,9-dioxo-4,9-dihydronaphtho[2,3-B]furan-3-carboxamide derivatives and uses thereof for treating proliferative diseases and infectious diseases” (Academia Sinica, priority 2016, dated 2024).
Converted amounts (≈) assume the structure as drawn. Read-outs that look alike come from different tables or passages of the source.

Tests used:
[1] = tested on: PC9/IR (human lung adenocarcinoma cells, EGFR del 19 mutation but resistant to gefitinib); experiment: SRB cytotoxicity assay, PC9/IR; details: 72 h
Escherichia coli [2] = experiment: Bacterial growth by Alamar Blue in Muller-Hinton broth; assay type: cell-based; details: 16-24 hours, read-out: % of the activities in the presence of ~10 μM compound, Escherichia coli
Experimental: (§1) Compound 1 and its analogues shown in Table 6 below were tested for their activities on cancer cells and bacterial cells using assays described herein. H1975, MDA-MB231, and MCF7 cells were incubated in the presence of the compounds in cell growth medium containing 10% fetal bovine serum for two days in a mammalian cell culture incubatoe. Cell viability were monitored by using Cell-TiterGlo. Staphylococcus aureus and Escherichia coli were incubated in the presence of the compounds in Muller-Hinton broth for 16-24 hours in a 37° C. incubator. Bacterial growth was monitored by using Alamar Blue (Invitrogen).

Staphylococcus aureus = experiment: as above; assay type: cell-based
Experimental: as §1

H1975 cell line = experiment: Sulforhodamine B colorimetric (SRB) assay, H1975; details: Homo sapiens, NCI-H1975, 72 h
[3] = tested on: CL1-0 (human lung adenocarcinoma cells, EGFR wild type and resistant to gefitinib); experiment: SRB cytotoxicity assay, CL1-0; details: CL1-0, 72 h
Klebsiella pneumoniae = experiment: MIC, broth micro dilution method; assay type: cell-based
[4] = tested on: Staphylococcus aureus (MSSA, MRSA); experiment: Disc diffusion method, inhibition zones; assay type: cell-based; details: for zone of inhibition at 5 µg/disc: Staphylococcus aureus, 5 μg
Acinetobacter baumannii = experiment: MIC, broth micro dilution method; assay type: cell-based
MCM2 = biological target: T1, MCM2 (Homo sapiens, UniProt P49736); experiment: Chromatin-bound MCM2 after double thymidine block (immunoblotting); assay type: cell-based; details: H1975, 4.5 hour, 6 hour and 9 hour treatment
T1 construct: The MCM2 proteins were pulled down by incubating the H1975 lysate with compound 1-conjugated magnetic beads; endogenous in cells; host or cells: H1975
T1 sequence (P49736 whole entry): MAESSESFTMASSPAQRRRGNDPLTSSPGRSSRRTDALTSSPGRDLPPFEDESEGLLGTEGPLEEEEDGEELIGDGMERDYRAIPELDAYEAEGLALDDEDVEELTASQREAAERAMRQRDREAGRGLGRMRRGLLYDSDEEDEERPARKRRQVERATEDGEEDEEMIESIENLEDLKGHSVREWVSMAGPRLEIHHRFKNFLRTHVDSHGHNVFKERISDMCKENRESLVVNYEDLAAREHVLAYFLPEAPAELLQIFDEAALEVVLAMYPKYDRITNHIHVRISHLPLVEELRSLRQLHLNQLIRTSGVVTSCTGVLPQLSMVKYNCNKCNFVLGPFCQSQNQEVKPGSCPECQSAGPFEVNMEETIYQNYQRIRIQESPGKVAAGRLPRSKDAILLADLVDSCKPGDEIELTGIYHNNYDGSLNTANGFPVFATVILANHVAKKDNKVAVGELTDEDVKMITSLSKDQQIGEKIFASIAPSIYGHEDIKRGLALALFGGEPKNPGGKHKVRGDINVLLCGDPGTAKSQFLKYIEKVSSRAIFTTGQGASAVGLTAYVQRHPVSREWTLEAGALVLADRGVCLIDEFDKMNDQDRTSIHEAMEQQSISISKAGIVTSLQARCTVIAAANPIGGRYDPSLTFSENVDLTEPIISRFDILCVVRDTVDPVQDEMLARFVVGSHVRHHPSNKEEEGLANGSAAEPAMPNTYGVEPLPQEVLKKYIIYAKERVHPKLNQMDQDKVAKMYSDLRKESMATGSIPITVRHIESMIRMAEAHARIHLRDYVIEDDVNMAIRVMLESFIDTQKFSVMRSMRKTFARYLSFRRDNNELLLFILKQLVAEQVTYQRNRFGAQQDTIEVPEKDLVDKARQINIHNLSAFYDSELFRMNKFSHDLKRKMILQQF
Experimental: To explore whether Compound 1-induced protein degradation also interfered with the DNA binding ability of MCM2, HI 975 cells were synchronized using a double thymidine block followed by release with DMSO or compound 1 treatment for 3 to 9 hours. Exemplary results are shown in Panel (D) of FIG. 3. Then, the cells were harvested to obtain the chromatin-bound fraction, and MCM2 was detected by immunoblotting.

[5] = tested on: Staphylococcus haemolyticus; experiment: MIC, broth micro dilution method; assay type: cell-based
[6] = tested on: Staphylococcus lugdunensis; experiment: MIC, broth micro dilution method; assay type: cell-based; details: clinical isolate; for MIC: Staphylococcus lugdunensis, strain NTUH-4179, methicillin-resistant
Enterococcus faecalis = experiment: MIC, broth micro dilution method; assay type: cell-based
[7] = tested on: Streptococcus infantarius subsp. infantarius; experiment: MIC, broth micro dilution method; assay type: cell-based; details: strain ATCC BAA-102, S. bovis
Escherichia coli [8] = experiment: MIC, broth micro dilution method; assay type: cell-based
[9] = tested on: Streptococcus infantarius subsp. coli; experiment: MIC, broth micro dilution method; assay type: cell-based; details: strain ATCC BAA-103, S. bovis
[10] = tested on: Staphylococcus epidermidis; experiment: MIC, broth micro dilution method; assay type: cell-based
H1975 cells = experiment: Replication fork number by MCM2 immunofluorescence staining; assay type: cell-based, human; details: H1975, 140 nM, 48 h
Experimental: In addition, to evaluate the effects of compound 1 on the progression of DNA replication, the number of replication forks was determined by MCM2 immunofluorescence staining in H1975 cells released from the G1 phase with DMSO and with compound 1 treatment. Exemplary results are shown in Panel (B) of FIG. 2. To evaluate the effects on DNA replication of compound 1, H1975 cells were arrested in G1 by contact inhibition. After 3 days, the cells were re-plated at a low density on cover slips and allowed to progress through the cell cycle. The cells were pulsed with 140 nM compound for 48 h and were fixed for 10 minutes at room temperature in 3.7% cold paraformaldehyde in PBS (pH 7.2), washed 3 times with PBS, and permeabilized for 10 minutes at room temperature in PBS containing 0.1% Triton X-100. The cells were blocked with PBS containing 3% bovine serum albumin and stained overnight at 4° C. with primary antibodies against MCM2, followed by incubation for 1 hour at 37° C. with Alexa Fluor 488 Goat Anti-Mouse IgG (Life Technologies Corporation), respectively. The cells were mounted onto microscope slides with ProLong Gold Antifade Reagent with DAPI (4′,6-Diamidino-2-phenylindole dihydrochloride) (Life Technologies Corporation) and then examined and photographed using Zeiss LSM 700 Confocal (Zeiss, Urbana, IL). […] (Panel (B) of FIG. 2)

[11] = strain NTUH-6767, methicillin-resistant

## Cc1oc2c(c1C(=O)NCCCn1ccnc1)C(=O)c1ccccc1C2=O [Compound 1, N-(3-(1H-Imidazol-1-yl)propyl)-2-methyl-4,9-dioxo-4,9-dihydronaphtho [2,3-b]furan-3-carboxamide]
[1]
  IC50: 48 nM
Escherichia coli [2]
  activity at 10 µM: > 100%
Staphylococcus aureus
  MIC: 2 µg/mL (≈ 5.5 µM)
Staphylococcus aureus; ~10 μM, 16-24 hours, Alamar Blue, read-out: % of the activities in the presence of ~10 μM compound, Staphylococcus aureus
  activity at 10 µM: 38.1%
H1975 cell line; H1975, 72 h
  IC50: 77 nM
H1975 cell line; H1975 cell line, SRB assay, 72 hours
  IC50: 77 to 247 nM
[3]
  IC50: 123 nM
Klebsiella pneumoniae; read-out: MIC (μg/ml) 100%, strain ATCC700603, gram negative
  MIC: > 32 µg/mL
Klebsiella pneumoniae; strain ATCC700603, gram negative, read-out: MIC (μg/ml) 50%
  MIC: > 32 µg/mL
[4]; 5 μg concentration, disc diffusion
  antimicrobial activity against all the MRSA strains: showed antimicrobial activity
[4]; MRSA
  antibacterial activity against MRSA as compared to ciprofloxacin: stronger antibacterial activity
[4]; disc diffusion, read-out: average diameter of the inhibition zone
  zone of inhibition at 5 µg/disc: 25.5 mm
[4]; strain MRSA14979, read-out: Inhibition zone (mm)
  zone of inhibition at 5 µg/disc: 25 mm
[4]; strain MRSA15211, read-out: Inhibition zone (mm)
  zone of inhibition at 5 µg/disc: 26 mm
[4]; strain NTUH-104-2, MRSA (SCCmec VT, ST45), read-out: Inhibition zone (mm)
  zone of inhibition at 5 µg/disc: 24 mm
[4]; strain NTUH-2102, MRSA (SCCmec II, ST5, FA-S), read-out: Inhibition zone (mm)
  zone of inhibition at 5 µg/disc: 26 mm
[4]; strain NTUH-4578, MRSA (SCCmec IV, ST59), read-out: Inhibition zone (mm)
  zone of inhibition at 5 µg/disc: 27 mm
[4]; strain NTUH-9383, MRSA (SCCmec III, ST239, FA-R), read-out: Inhibition zone (mm)
  zone of inhibition at 5 µg/disc: 29 mm
[4]; strain PM1, MRSA (SCCmec VT, ST59), read-out: Inhibition zone (mm)
  zone of inhibition at 5 µg/disc: 25 mm
[4]; strain SA10451, read-out: Inhibition zone (mm)
  zone of inhibition at 5 µg/disc: 24 mm
[4]; strain SA10780, read-out: Inhibition zone (mm)
  zone of inhibition at 5 µg/disc: 25 mm
[4]; strain SAI 1863, read-out: Inhibition zone (mm)
  zone of inhibition at 5 µg/disc: 25 mm
[4]; ATCC 25923 / MRSA / MSSA, strain ATCC25923, MSSA, read-out: Inhibition zone (mm)
  zone of inhibition at 5 µg/disc: 26 mm
Acinetobacter baumannii; read-out: MIC (μg/ml) 100%, strain ATCC19606, gram negative
  MIC: > 32 µg/mL
Acinetobacter baumannii; strain ATCC19606, gram negative, read-out: MIC (μg/ml) 50%
  MIC: > 32 µg/mL
MCM2
  chromatin-bound form of MCM2 vs DMSO control: significantly reduced
[5]; read-out: MIC (μg/ml) 100%, strain ATCC29970, methicillin-susceptible
  MIC: 4 µg/mL (≈ 11 µM)
[5]; strain ATCC29970, methicillin-susceptible, read-out: MIC (μg/ml) 50%
  MIC: 2 µg/mL (≈ 5.5 µM)
[6]; read-out: MIC (μg/ml) 100%
  MIC: 4 µg/mL (≈ 11 µM)
[6]; read-out: MIC (μg/ml) 50%
  MIC: 0.5 µg/mL (≈ 1.38 µM)
[6]; [11]
  MIC (μg/ml) 50%: 0.5 µg/mL (≈ 1.38 µM)
  MIC (μg/ml) 100%: 4 µg/mL (≈ 11 µM)
Enterococcus faecalis; read-out: MIC (μg/ml) 100%, strain ATCC19433
  MIC: 32 µg/mL (≈ 88.1 µM)
Enterococcus faecalis; strain ATCC19433, read-out: MIC (μg/ml) 50%
  MIC: 16 µg/mL (≈ 44 µM)
[7]; read-out: MIC (μg/ml) 100%
  MIC: 8 µg/mL (≈ 22 µM)
[7]; read-out: MIC (μg/ml) 50%
  MIC: 4 µg/mL (≈ 11 µM)
Escherichia coli [8]; read-out: MIC (μg/ml) 100%, strain ATCC33625, gram negative
  MIC: > 32 µg/mL
Escherichia coli [8]; strain ATCC33625, gram negative, read-out: MIC (μg/ml) 50%
  MIC: > 32 µg/mL
[9]; read-out: MIC (μg/ml) 100%
  MIC: 4 µg/mL (≈ 11 µM)
[9]; read-out: MIC (μg/ml) 50%
  MIC: 2 µg/mL (≈ 5.5 µM)
[10]; read-out: MIC (μg/ml) 100%, strain ATCC12228, methicillin-susceptible
  MIC: 2 µg/mL (≈ 5.5 µM)
[10]; read-out: MIC (μg/ml) 100%, strain ATCC35984, methicillin-resistant
  MIC: 1 µg/mL (≈ 2.75 µM)
[10]; strain ATCC12228, methicillin-susceptible, read-out: MIC (μg/ml) 50%
  MIC: 0.5 µg/mL (≈ 1.38 µM)
[10]; strain ATCC35984, methicillin-resistant, read-out: MIC (μg/ml) 50%
  MIC: 0.25 µg/mL (≈ 0.688 µM)
H1975 cells
  number of the replication fork: 176.8±8.721
